Test results published in patent US20230365617A1, “SAPONIN DERIVATIVES FOR USE IN MEDICINE” (priority 2020, published 2023).
Read-outs that look alike come from different tables or passages of the source.

Columns and labels:
HeLa cells [1] = assay: Pilot cell killing bioassay, saponin with or without 1.5 pM dianthin-EGF, 72 h; type: cell-based, human; set-up: key: Cell killing activity (+ or -); Cell killing activity (+ or -)
Protocol: HeLa cells were incubated for 72 h with the following constructs and cell viability before and after the 72 h-incubation was assessed. In the experiments, cells were exposed to 1.5 pM dianthin-EGF conjugate. A negative control were cells incubated with buffer vehicle and 10 microgram/ml saponin, without dianthin-EGF. Cell viability was set to 100% for the control in which both saponin and EGF-dianthin were omitted. […] Cell viability after 72 h was essentially 0%. For the chemically modified saponin variants, 10 microgram/ml saponin was tested in combination with 1.5 pM dianthin-EGF.

[2] = test system: A431 cells (EGFR expressing); assay: Cell viability, saponin titration with or without […] EGFdianthin; type: cell-based, human
A431 cells = assay: cells; type: cell-based; settings: Homo sapiens, A-431, saponin alone, read-out: IC50 toxicity on A431 cells
Protocol: (§1) (FIGS. 66A and 66B). Next toxicity was determined, for this the modified saponins were titrated on HeLa and A431 cells. […] Next toxicity was determined, for this the modified saponins were titrated on HeLa and A431 cells.

HeLa cells [3] = assay: cells; type: cell-based, human
Protocol: as §1

in vitro = type: cell-based, human; settings: human red blood cells; read-out: IC50 hemolytic activity
Protocol: (§2) Cells were pelleted by centrifugation for 10 min, 800xg at RT.

human red blood cells = assay: cells; type: cell-based; settings: Erythrocyte
Protocol: as §2

[4] = Critical micellar concentration (CMC) by ANS fluorescence; type: physicochemical; settings: for CMC compared with the corresponding native/underivatised saponin: qualitative
Protocol: The critical micellar concentration (CMC) of saponins derived from Saponaria officinalis (SO) (Table A7) and derived from Quillaja saponaria (QS) (Table A8, and Table A9) was determined by the method of DeVendittis et al. (A fluorimetric method for the estimation of the critical micelle concentration of surfactants, Analytical Biochemistry, Volume 115, Issue 2, August 1981, Pages 278-286) as follows:
The emission spectrum of 8-Anilinonaphthalene-1-sulfonic acid (ANS) in either purified water (MQ) or PBS (Dulbecco’s PBS +/+) was determined at dry weight concentrations of saponins ranging from 1 to 1400 µM to cover the range below and above the CMC. Above the CMC, the fluorescence yield of ANS increases and the wavelength of maximum emission decreases due to portioning of the fluorescent dye into micelles. Fluorescence yields were recorded on a Fluoroskan Ascent FL (Thermo Scientific) at an excitation wavelength of 355 nm, and an emission wavelength of 460 nm. 6 µg at a concentration of 75.86 µM of ANS were used per sample and measurement.
The critical micellar concentration (CMC) of saponins was determined by the method of DeVendittis et al. (A fluorimetric method for the estimation of the critical micelle concentration of surfactants, Analytical Biochemistry, Volume 115, Issue 2, August 1981, Pages 278-286) as follows: […]

[5] = test system: A2058 cells (EGFR non-expressing); assay: Cell viability, saponin titration with or without […] EGFdianthin; type: cell-based, human; settings: saponin as single compound
[6] = 10 µg/ml SO1861 or SO1861-derivative alone
[7] = SO saponins, determined in PBS (Table A7)
[8] = 10 µg/ml SO1861 or SO1861-derivative + […] EGFdianthin
[9] = HeLa cells, saponin alone (Table A5), read-out: IC50 nM (Toxicity)
[10] = SO1831 and Aescin, determined in PBS (Table A11)

## CC(=O)OC1C(C)OC(OC2C(C)OC(OC(=O)C34CCC(C)(C)CC3C3=CCC5C6(C)CCC(OC7OC(C(=O)O)C(O)C(OC8OCC(O)C(O)C8O)C7OC7OC(CO)C(O)C(O)C7O)C(C)(C=NNC(=O)CCOCCOCCOCCOCCN=[N+]=[N-])C6CCC5(C)C3(C)CC4O)C(OC3OC(C)C(OC4OCC(O)C(OC5OC(CO)C(O)C(O)C5O)C4O)C(O)C3O)C2O)C(O)C1OC1OCC(O)C(O)C1O (stereo not shown)
HeLa cells [1]; [6]
  Cell killing activity (+ or -): -
[2]; read-out: general toxicity in absence of EGFdianthin, saponin as single compound
  IC50: > 10 µM

## CC[C@H](C)[C@H](C[C@H](O)CC(=O)OC1C(C)OC(OC(=O)[C@]23CCC(C)(C)CC2C2=CCC4[C@@]5(C)CC[C@H](OC6OC(C(=O)NC(C)(CO)CO)C(O)C(OC7OCC(O)C(O)C7O)C6OC6OC(CO)C(O)C(O)C6O)[C@@](C)(/C=N/NC(=O)CCCCCN6C(=O)C=CC6=O)C5CC[C@@]4(C)[C@]2(C)C[C@H]3O)C(OC2OC(C)C(OC3OCC(O)C(OC4OCC(O)(CO)C4O)C3O)C(O)C2O)C1O)OC(=O)C[C@@H](O)C[C@H](OC1OC(CO)C(O)C1O)[C@@H](C)CC (stereo partly shown) [QS21-(Ald-EMCH)-(Glu-AMPD)]
A431 cells
  IC50: > 30 µM
HeLa cells [3]; Homo sapiens, HeLa cells (Table A12, Example 8), read-out: IC50 nM (Toxicity)
  IC50: > 30000 nM
HeLa cells [3]; Homo sapiens, HeLa, saponin alone, read-out: IC50 toxicity on HeLa cells
  IC50: > 30000 nM
In vitro
  HC50: > 1 mM
Human red blood cells; human red blood cells (Table A12, Example 8), read-out: IC50 nM (hemolysis)
  IC50: > 300000 nM
Human red blood cells; human red blood cells, read-out: IC50 hemolytic activity
  IC50: > 300000 nM

## CC[C@H](C)[C@H](C[C@H](O)CC(=O)OC1C(C)OC(OC(=O)[C@]23CCC(C)(C)CC2C2=CCC4[C@@]5(C)CC[C@H](OC6OC(C(=O)O)C(O)C(OC7OCC(O)C(O)C7O)C6OC6OC(CO)C(O)C(O)C6O)[C@@](C)(/C=N/NC(=O)CCCCCN6C(=O)C=CC6=O)C5CC[C@@]4(C)[C@]2(C)C[C@H]3O)C(OC2OC(C)C(OC3OCC(O)C(OC4OCC(O)(CO)C4O)C3O)C(O)C2O)C1O)OC(=O)C[C@@H](O)C[C@H](OC1OC(CO)C(O)C1O)[C@@H](C)CC (stereo partly shown) [QS21-Ald-EMCH]
HeLa cells [3]; Homo sapiens, HeLa, read-out: IC50 nM (Toxicity), HeLa cells (Table A12, Example 8)
  IC50: > 30000 nM
Human red blood cells; Homo sapiens, read-out: IC50 hemolytic activity, human red blood cells
  IC50: 30000 nM

## CC(=O)OC1C(C)OC(OC2C(C)OC(OC(=O)[C@]34CCC(C)(C)CC3C3=CCC5[C@@]6(C)CC[C@H](OC7OC(C(=O)O)C(O)C(OC8OCC(O)C(O)C8O)C7OC7OC(CO)C(O)C(O)C7O)[C@@](C)(C=O)C6CC[C@@]5(C)[C@]3(C)C[C@H]4O)C(OC3OC(C)C(OC4OCC(O)C(OC5OC(CO)C(O)C(O)C5O)C4O)C(O)C3O)C2O)C(O)C1OC1OCC(O)C(O)C1O (stereo partly shown) [SO1861, reference compound]
[4]; SO1861 saponins
  CMC: 185 µM
[4]; [7]
  CMC: 185 ± 19 µM
HeLa cells [1]; [8]
  Cell killing activity (+ or -): +
HeLa cells [1]; [6]
  Cell killing activity (+ or -): -
[5]
  general toxicity in absence of EGFdianthin: strong cell viability reduction
[2]; saponin as single compound
  general toxicity in absence of EGFdianthin: strong cell viability reduction

## CC(=O)OC1C(C)OC(OC2C(C)OC(OC(=O)C34CCC(C)(C)CC3C3=CCC5C6(C)CCC(OC7OC(C(=O)NC(C)(CO)CO)C(O)C(OC8OCC(O)C(O)C8O)C7OC7OC(CO)C(O)C(O)C7O)C(C)(C=NNC(=O)CCCCCN7C(=O)C=CC7=O)C6CCC5(C)C3(C)CC4O)C(OC3OC(C)C(OC4OCC(O)C(OC5OC(CO)C(O)C(O)C5O)C4O)C(O)C3O)C2O)C(O)C1OC1OCC(O)C(O)C1O (stereo not shown) [SO1861-(Ald-EMCH)-(Glu-AMPD)]
[4]; [7]
  CMC: > 30 µM
[4]
  CMC compared with the corresponding native/underivatised saponin: lower CMC values

## CC(=O)OC1C(C)OC(OC2C(C)OC(OC(=O)[C@]34CCC(C)(C)CC3C3=CCC5[C@@]6(C)CC[C@H](OC7OC(C(=O)NC(C)(CO)CO)C(O)C(OC8OCC(O)C(O)C8O)C7OC7OC(CO)C(O)C(O)C7O)[C@@](C)(CO)C6CC[C@@]5(C)[C@]3(C)C[C@H]4O)C(OC3OC(C)C(OC4OCC(O)C(OC5OC(CO)C(O)C(O)C5O)C4O)C(O)C3O)C2O)C(O)C1OC1OCC(O)C(O)C1O (stereo partly shown) [SO1861-(Ald-OH)-(Glu-AMPD)]
[4]; [7]
  CMC: 50 ± 5 µM
[4]
  CMC compared with the corresponding native/underivatised saponin: lower CMC values

## CC(=O)OC1C(C)OC(OC2C(C)OC(OC(=O)[C@]34CCC(C)(C)CC3C3=CCC5[C@@]6(C)CC[C@H](OC7OC(C(=O)NCCN8C(=O)C=CC8=O)C(O)C(OC8OCC(O)C(O)C8O)C7OC7OC(CO)C(O)C(O)C7O)[C@@](C)(CO)C6CC[C@@]5(C)[C@]3(C)C[C@H]4O)C(OC3OC(C)C(OC4OCC(O)C(OC5OC(CO)C(O)C(O)C5O)C4O)C(O)C3O)C2O)C(O)C1OC1OCC(O)C(O)C1O (stereo partly shown) [SO1861-(Glu-AEM)-(Ald-OH)]
[4]; [7]
  CMC: 90 ± 10 µM
[4]
  CMC compared with the corresponding native/underivatised saponin: lower CMC values

## CC(=O)OC1C(C)OC(OC2C(C)OC(OC(=O)[C@]34CCC(C)(C)CC3C3=CCC5[C@@]6(C)CC[C@H](OC7OC(C(=O)O)C(O)C(OC8OCC(O)C(O)C8O)C7OC7OC(CO)C(O)C(O)C7O)[C@@](C)(/C=N/NC(=O)CCCCCN7C(=O)C[C@H](SCCO)C7=O)C6CC[C@@]5(C)[C@]3(C)CC4O)C(OC3OC(C)C(OC4OCC(O)C(OC5OC(CO)C(O)C(O)C5O)C4O)C(O)C3O)C2O)C(O)C1OC1OCC(O)C(O)C1O (stereo partly shown) [SO1861-Ald-EMCH-blocked]
[4]; [7]
  CMC: 50 ± 5 µM
HeLa cells [3]; [9]
  IC50: > 100000 nM

## CC(=O)OC1C(C)OC(OC2C(C)OC(OC(=O)[C@]34CCC(C)(C)CC3C3=CCC5[C@@]6(C)CC[C@H](OC7OC(C(=O)O)C(O)C(OC8OCC(O)C(O)C8O)C7OC7OC(CO)C(O)C(O)C7O)[C@@](C)(CO)C6CC[C@@]5(C)[C@]3(C)C[C@H]4O)C(OC3OC(C)C(OC4OCC(O)C(OC5OC(CO)C(O)C(O)C5O)C4O)C(O)C3O)C2O)C(O)C1OC1OCC(O)C(O)C1O (stereo partly shown) [SO1861-Ald-OH]
[4]; [7]
  CMC: 135 ± 14 µM
[4]
  CMC compared with the corresponding native/underivatised saponin: higher CMC values
[4]; listed as 6
  CMC compared with the corresponding native/underivatised saponin: increased CMC

## CC(=O)OC1C(C)OC(OC2C(C)OC(OC(=O)[C@]34CCC(C)(C)CC3C3=CCC5[C@@]6(C)CC[C@H](OC7OC(C(=O)NCCN8C(=O)C=CC8=O)C(O)C(OC8OCC(O)C(O)C8O)C7OC7OC(CO)C(O)C(O)C7O)[C@@](C)(C=O)C6CC[C@@]5(C)[C@]3(C)C[C@H]4O)C(OC3OC(C)C(OC4OCC(O)C(OC5OC(CO)C(O)C(O)C5O)C4O)C(O)C3O)C2O)C(O)C1OC1OCC(O)C(O)C1O (stereo partly shown) [SO1861-Glu-AEM]
[4]; [7]
  CMC: 45 ± 5 µM
[4]
  CMC compared with the corresponding native/underivatised saponin: lower CMC values
HeLa cells [3]; [9]
  IC50: > 100000 nM

## CC(=O)OC1C(C)OC(OC2C(C)OC(OC(=O)[C@]34CCC(C)(C)CC3C3=CCC5[C@@]6(C)CC[C@H](OC7OC(C(=O)NC(C)(CO)CO)C(O)C(OC8OCC(O)C(O)C8O)C7OC7OC(CO)C(O)C(O)C7O)[C@@](C)(C=O)C6CC[C@@]5(C)[C@]3(C)C[C@H]4O)C(OC3OC(C)C(OC4OCC(O)C(OC5OC(CO)C(O)C(O)C5O)C4O)C(O)C3O)C2O)C(O)C1OC1OC(C)C(O)C(O)C1O (stereo partly shown) [SO1861-Glu-AMPD]
[4]; [7]
  CMC: 50 ± 5 µM
[4]
  CMC compared with the corresponding native/underivatised saponin: lower CMC values

## CC(=O)On1nnc2cccnc21 [SO1861-Glu-HATU]
HeLa cells [1]; [8]
  Cell killing activity (+ or -): +
HeLa cells [1]; [6]
  Cell killing activity (+ or -): -

## Aescin [Aescin (95%), reference compound]
[4]; [10]
  CMC: 130 ± 13 µM

## Aescin [Aescin (98%), reference compound]
[4]; [10]
  CMC: 135 ± 14 µM

## QS21 [reference compound]
[4]; QS saponins (Table A8, MQ)
  CMC: 49 µM
[4]; QS saponins, determined in purified water (MQ) (Table A8)
  CMC: 49 ± 5 µM
[4]; in MQ (Table A9)
  CMC: 49 ± 5 µM
[4]; modified QS21 saponins, determined in PBS (Table A9)
  CMC: 40 ± 5 µM
